Results reported in US10874743B2, “IRAK degraders and uses thereof” (Kymera Therapeutics, Inc., priority 2017, dated 2020).
Values joined by “and” are separate entries in the source; they are usually repeats but may differ in a detail not shown here. Identical values can stand only once. Like-named read-outs stand apart in the source and are kept apart here.

Assay: Pharmacokinetics in CD-1 mice (plasma concentrations, PK parameters)
Format: in vivo
Conditions: for concentration at 5 min / concentration at 0.5 h / concentration at 1 h / concentration at 2 h / concentration at 4 h / concentration at 24 h / concentration at 6 h: read-out: Concentration; for AUC(0-inf): read-out: AUCInf; for AUC(0-t): read-out: AUClast; for MRT inf: read-out: MRTInf_obs
Procedure: Pharmacokinetics for I-127, I-172 and I-210 were determined in Sprague Dawley rats or CD-1 mice by dosing intravenous (IV), subcutaneous (SC) or per oral (PO) using facility SOPs and sampling plasma at required time points. Species, formulation, route of administration and time points samples are listed below for each compound.
Compounds were extracted from plasma, injected on reverse phase HPLC, eluted with a gradient from 5% to 95% acetonitrile in water and quantified by mass spectrometry with internal standard. Data are expressed in ng compound per mL of plasma.

[1] = CD-1, mouse, plasma, iv, 2 mg/kg, mouse (CD1) iv 2 mg/kg, Mean
[2] = CD-1, mouse, plasma, iv, 2 mg/kg, mouse (CD1) iv 2 mg/kg, individual Mouse 1-3
[3] = CD-1, mouse, plasma, sc, 30 mg/kg, mouse (CD1) sc 30 mg/kg, Mean
[4] = CD-1, mouse, plasma, sc, 30 mg/kg, mouse (CD1) sc 30 mg/kg, individual Mouse 7-9
[5] = mouse (CD1) iv 2 mg/kg, individual Mouse 1-3, 2 mg/kg
[6] = mouse (CD1) sc 30 mg/kg, individual Mouse 7-9, 30 mg/kg

## NC(=O)c1nn(-c2ccc(C(=O)NCCCCCNCCNc3cccc4c3C(=O)N(C3CCC(=O)NC3=O)C4=O)cc2)cc1NC(=O)c1coc(-c2ccnc(NCC(F)(F)F)c2)n1 (stereo not shown) [I-172, N-[3-carbamoyl-1-[4-[5-[2-[[2-(2,6-dioxo-3-piperidyl)-1,3-dioxo-isoindolin-4-yl]amino]ethylamino]pentylcarbamoyl]phenyl]pyrazol-4-yl]-2-[2-(2,2,2-trifluoroethylamino)-4-pyridyl]oxazole-4-carboxamide]
CD-1, mouse, plasma, iv, 2 mg/kg, mouse (CD1) iv 2 mg/kg, 5 min, Mean
  concentration at 5 min: 3420 ng/mL
CD-1, mouse, plasma, iv, 2 mg/kg, mouse (CD1) iv 2 mg/kg, 5 min, individual Mouse 1-3
  concentration at 5 min: 4150 ng/mL
CD-1, mouse, plasma, iv, 2 mg/kg, mouse (CD1) iv 2 mg/kg, 0.25 h, Mean
  concentration at 0.25 h: 387 ng/mL
CD-1, mouse, plasma, iv, 2 mg/kg, mouse (CD1) iv 2 mg/kg, 0.25 h, individual Mouse 1-3
  concentration at 0.25 h: 444 ng/mL
CD-1, mouse, plasma, iv, 2 mg/kg, mouse (CD1) iv 2 mg/kg, 0.5 h, Mean
  concentration at 0.5 h: 123 ng/mL
CD-1, mouse, plasma, iv, 2 mg/kg, mouse (CD1) iv 2 mg/kg, 0.5 h, individual Mouse 1-3
  concentration at 0.5 h: 130 ng/mL
CD-1, mouse, plasma, iv, 2 mg/kg, mouse (CD1) iv 2 mg/kg, 1 h, Mean
  concentration at 1 h: 34.7 ng/mL
CD-1, mouse, plasma, iv, 2 mg/kg, mouse (CD1) iv 2 mg/kg, 1 h, individual Mouse 1-3
  concentration at 1 h: 34.3 ng/mL
CD-1, mouse, plasma, iv, 2 mg/kg, mouse (CD1) iv 2 mg/kg, 2 h, Mean
  concentration at 2 h: 12.6 ng/mL
CD-1, mouse, plasma, iv, 2 mg/kg, mouse (CD1) iv 2 mg/kg, 2 h, individual Mouse 1-3
  concentration at 2 h: 11.5 ng/mL
CD-1, mouse, plasma, iv, 2 mg/kg, mouse (CD1) iv 2 mg/kg, 4 h, Mean
  concentration at 4 h: 7.77 ng/mL
CD-1, mouse, plasma, iv, 2 mg/kg, mouse (CD1) iv 2 mg/kg, 4 h, individual Mouse 1-3
  concentration at 4 h: 9.04 ng/mL
CD-1, mouse, plasma, iv, 2 mg/kg, mouse (CD1) iv 2 mg/kg, 8 h, Mean
  concentration at 8 h: 2.46 ng/mL
CD-1, mouse, plasma, iv, 2 mg/kg, mouse (CD1) iv 2 mg/kg, 8 h, individual Mouse 1-3
  concentration at 8 h: 2.62 ng/mL
CD-1, mouse, plasma, iv, 2 mg/kg, mouse (CD1) iv 2 mg/kg, 24 h, individual Mouse 1-3
  concentration at 24 h: 2.55 ng/mL
[1]
  half-life: 2.53 h
  AUC(0-inf): 1070 ng·h/mL
  AUC(0-t): 1060 ng·h/mL
  MRT inf: 0.61 h
CD-1, mouse, plasma, iv, 2 mg/kg, mouse (CD1) iv 2 mg/kg, Mean, read-out: C0
  C0: 10200 ng/mL
[2]
  half-life: 2.71 h
  AUC(0-inf): 1270 ng·h/mL
  AUC(0-t): 1260 ng·h/mL
CD-1, mouse, plasma, iv, 2 mg/kg, mouse (CD1) iv 2 mg/kg, individual Mouse 1-3, read-out: C0
  C0: 12700 ng/mL
CD-1, mouse, plasma, sc, 30 mg/kg, mouse (CD1) sc 30 mg/kg, 0.25 h, Mean
  concentration at 0.25 h: 43.1 ng/mL
CD-1, mouse, plasma, sc, 30 mg/kg, mouse (CD1) sc 30 mg/kg, 0.25 h, individual Mouse 7-9
  concentration at 0.25 h: 34.6 ng/mL
CD-1, mouse, plasma, sc, 30 mg/kg, mouse (CD1) sc 30 mg/kg, 0.5 h, Mean
  concentration at 0.5 h: 64.8 ng/mL
CD-1, mouse, plasma, sc, 30 mg/kg, mouse (CD1) sc 30 mg/kg, 0.5 h, individual Mouse 7-9
  concentration at 0.5 h: 71.9 ng/mL
CD-1, mouse, plasma, sc, 30 mg/kg, mouse (CD1) sc 30 mg/kg, 1 h, Mean
  concentration at 1 h: 64.8 ng/mL
CD-1, mouse, plasma, sc, 30 mg/kg, mouse (CD1) sc 30 mg/kg, 1 h, individual Mouse 7-9
  concentration at 1 h: 52.6 ng/mL
CD-1, mouse, plasma, sc, 30 mg/kg, mouse (CD1) sc 30 mg/kg, 2 h, Mean
  concentration at 2 h: 50.8 ng/mL
CD-1, mouse, plasma, sc, 30 mg/kg, mouse (CD1) sc 30 mg/kg, 2 h, individual Mouse 7-9
  concentration at 2 h: 48 ng/mL
CD-1, mouse, plasma, sc, 30 mg/kg, mouse (CD1) sc 30 mg/kg, 4 h, Mean
  concentration at 4 h: 37.3 ng/mL
CD-1, mouse, plasma, sc, 30 mg/kg, mouse (CD1) sc 30 mg/kg, 4 h, individual Mouse 7-9
  concentration at 4 h: 33.3 ng/mL
CD-1, mouse, plasma, sc, 30 mg/kg, mouse (CD1) sc 30 mg/kg, 6 h, Mean
  concentration at 6 h: 19.4 ng/mL
CD-1, mouse, plasma, sc, 30 mg/kg, mouse (CD1) sc 30 mg/kg, 6 h, individual Mouse 7-9
  concentration at 6 h: 16 ng/mL
CD-1, mouse, plasma, sc, 30 mg/kg, mouse (CD1) sc 30 mg/kg, 24 h, Mean
  concentration at 24 h: 5.33 ng/mL
CD-1, mouse, plasma, sc, 30 mg/kg, mouse (CD1) sc 30 mg/kg, 24 h, individual Mouse 7-9
  concentration at 24 h: 5.4 ng/mL
[3]
  half-life: 8 h
  AUC(0-inf): 538 ng·h/mL
  AUC(0-t): 476 ng·h/mL
  MRT inf: 9.4 h
CD-1, mouse, plasma, sc, 30 mg/kg, mouse (CD1) sc 30 mg/kg, Mean, read-out: Cmax
  Cmax: 71.2 ng/mL
CD-1, mouse, plasma, sc, 30 mg/kg, mouse (CD1) sc 30 mg/kg, Mean, read-out: Tmax
  Tmax: 0.833 h
[4]
  half-life: 8.79 h
  AUC(0-inf): 491 ng·h/mL
  AUC(0-t): 422 ng·h/mL
  MRT inf: 10.4 h
CD-1, mouse, plasma, sc, 30 mg/kg, mouse (CD1) sc 30 mg/kg, individual Mouse 7-9, read-out: Cmax
  Cmax: 71.9 ng/mL
CD-1, mouse, plasma, sc, 30 mg/kg, mouse (CD1) sc 30 mg/kg, individual Mouse 7-9, read-out: Tmax
  Tmax: 0.5 h
Mouse (CD1) iv 2 mg/kg, 5 min, individual Mouse 1-3, 2 mg/kg
  Concentration: 2810 ng/mL and 3290 ng/mL
Mouse (CD1) iv 2 mg/kg, 0.25 h, individual Mouse 1-3, 2 mg/kg
  Concentration: 314 ng/mL and 404 ng/mL
Mouse (CD1) iv 2 mg/kg, 0.5 h, individual Mouse 1-3, 2 mg/kg
  Concentration: 102 ng/mL and 136 ng/mL
Mouse (CD1) iv 2 mg/kg, 1 h, individual Mouse 1-3, 2 mg/kg
  Concentration: 31.5 ng/mL and 38.2 ng/mL
Mouse (CD1) iv 2 mg/kg, 2 h, individual Mouse 1-3, 2 mg/kg
  Concentration: 11.7 ng/mL and 14.6 ng/mL
Mouse (CD1) iv 2 mg/kg, 4 h, individual Mouse 1-3, 2 mg/kg
  Concentration: 6.56 ng/mL and 7.70 ng/mL
Mouse (CD1) iv 2 mg/kg, 8 h, individual Mouse 1-3, 2 mg/kg
  Concentration: 2.07 ng/mL and 2.69 ng/mL
Mouse (CD1) iv 2 mg/kg, 24 h, individual Mouse 1-3, 2 mg/kg
  Concentration: BLOQ
Mouse (CD1) iv 2 mg/kg, Mean
  AUC_%Extrap_obs: 0.826%
  AUClast/D: 532 h·ng/mL per mg/kg
  Cl_obs: 31.8 mL/min/kg
  Vss_obs: 1.15 L/kg
[5]
  AUCInf: 877 ng·h/mL and 1067 ng·h/mL
  AUC_%Extrap_obs: 0.805% and 0.818% and 0.856%
  AUClast: 870 ng·h/mL and 1058 ng·h/mL
  AUClast/D: 632 h·ng/mL per mg/kg and 435 h·ng/mL per mg/kg and 529 h·ng/mL per mg/kg
  C0: 8401 ng/mL and 9383 ng/mL
  Cl_obs: 26.2 mL/min/kg and 38.0 mL/min/kg and 31.2 mL/min/kg
  MRTInf_obs: 0.332 h and 0.362 h and 1.13 h
  T1/2: 2.40 h and 2.48 h
  Vss_obs: 0.522 L/kg and 0.826 L/kg and 2.11 L/kg
Mouse (CD1) po 30 mg/kg, 0.25 h, individual Mouse 4-6
  Concentration: BLOQ
Mouse (CD1) po 30 mg/kg, 0.5 h, individual Mouse 4-6
  Concentration: BLOQ
Mouse (CD1) po 30 mg/kg, 1 h, individual Mouse 4-6
  Concentration: BLOQ
Mouse (CD1) po 30 mg/kg, 2 h, individual Mouse 4-6
  Concentration: BLOQ
Mouse (CD1) po 30 mg/kg, 4 h, individual Mouse 4-6
  Concentration: BLOQ
Mouse (CD1) po 30 mg/kg, 8 h, individual Mouse 4-6
  Concentration: BLOQ
Mouse (CD1) po 30 mg/kg, 24 h, individual Mouse 4-6
  Concentration: BLOQ
Mouse (CD1) sc 30 mg/kg, 0.25 h, individual Mouse 7-9, 30 mg/kg
  Concentration: 40.0 ng/mL and 54.6 ng/mL
Mouse (CD1) sc 30 mg/kg, 0.5 h, individual Mouse 7-9, 30 mg/kg
  Concentration: 57.6 ng/mL and 64.8 ng/mL
Mouse (CD1) sc 30 mg/kg, 1 h, individual Mouse 7-9, 30 mg/kg
  Concentration: 63.0 ng/mL and 78.7 ng/mL
Mouse (CD1) sc 30 mg/kg, 2 h, individual Mouse 7-9, 30 mg/kg
  Concentration: 46.5 ng/mL and 58.0 ng/mL
Mouse (CD1) sc 30 mg/kg, 4 h, individual Mouse 7-9, 30 mg/kg
  Concentration: 37.0 ng/mL and 41.6 ng/mL
Mouse (CD1) sc 30 mg/kg, 6 h, individual Mouse 7-9, 30 mg/kg
  Concentration: 20.7 ng/mL and 21.5 ng/mL
Mouse (CD1) sc 30 mg/kg, 24 h, individual Mouse 7-9, 30 mg/kg
  Concentration: 4.74 ng/mL and 5.85 ng/mL
Mouse (CD1) sc 30 mg/kg, Mean
  AUC_%Extrap_obs: 11.5%
  AUClast/D: 15.9 h·ng/mL per mg/kg
  F: 3.34%
[6]
  AUCInf: 522 ng·h/mL and 601 ng·h/mL
  AUC_%Extrap_obs: 14.0% and 9.60% and 11.1%
  AUClast: 472 ng·h/mL and 535 ng·h/mL
  AUClast/D: 14.1 h·ng/mL per mg/kg and 15.7 h·ng/mL per mg/kg and 17.8 h·ng/mL per mg/kg
  Cmax: 63.0 ng/mL and 78.7 ng/mL
  F: 3.05% and 3.25% and 3.74%
  MRTInf_obs: 8.61 h and 9.13 h
  T1/2: 7.34 h and 7.89 h
  Tmax: 1 h
